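All cell lines were grown in 96-well plates and treated with compound for 48 hours. The concentration for full growth arrest is given as TGI.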
How the values were obtained:
Experiment in all cases: DTP human tumour cell line panel, 48 h
[1] = test system: HOP-62 NSCLC
[2] = test system: LOX IMVI melanoma
[3] = test system: OVCAR-3 ovarian
[4] = test system: SK-MEL-5 melanoma
[5] = test system: SK-OV-3 ovarian

Compound | TGI [1] | TGI [2] | TGI [3] | TGI [4] | TGI [5]
CN(CCC(=O)N1CC(CCl)c2ccc([N+](=O)[O-])cc21)CCC(=O)N1CC(CCl)c2ccc([N+](=O)[O-])cc21 (stereo unspecified) | > 100 µM | 21.7 µM | 23.7 µM | 24.8 µM | > 100 µM
COc1nn(Cc2ccccn2)c2ccc([N+](=O)[O-])cc12 | > 100 µM | > 100 µM | > 100 µM | > 100 µM | > 100 µM
CC12CCCC(C(=O)O)(C1)[C@H](C(C)(C)C(=O)O)CC2 (stereo partly specified) | > 100 µM | > 100 µM | > 100 µM | > 100 µM | > 100 µM
C=C(C)C1CC=C(C)C(=O)C1 (stereo unspecified) | > 100 µM | > 100 µM | > 100 µM | > 100 µM | –
CC(=O)Nc1ccc(-c2nc3ccccc3s2)cc1Br | 56.7 µM | > 100 µM | > 100 µM | > 100 µM | 75 µM
Cc1nc2ccccc2c(=O)n1NC(=O)c1ccccn1 | > 100 µM | > 100 µM | > 100 µM | > 100 µM | > 100 µM
CC(C)OC(=O)c1ccc(NCC2=CC(=O)C=CC2=O)cc1 | > 100 µM | 26.2 µM | 21.6 µM | 32.2 µM | > 100 µM
CC(C)(C)c1cc(S(=O)(=O)O)c2oc(-c3ccccc3)cc(=O)c2c1 | > 100 µM | > 100 µM | > 100 µM | > 100 µM | –
CC(C)CCCC(C)[C@H]1CC[C@H]2n3c(nnc3-c3ccccc3)CCC[C@]12C (stereo partly specified) | 37.5 µM | 12.5 µM | 25.2 µM | 25.1 µM | 26.9 µM
O=C(CP(=O)(c1ccccc1)c1ccccc1)c1cccc(C(=O)CP(=O)(c2ccccc2)c2ccccc2)c1 | > 100 µM | – | – | > 100 µM | 56.1 µM
COC(=O)C1=CC2C(=O)c3ccccc3C1(c1ccccc1)N2C1CCCCC1 (stereo unspecified) | 36.8 µM | 52.3 µM | 95 µM | 22 µM | > 100 µM
O=C(CSc1ncccn1)N/N=C/c1ccccc1OCc1ccccc1 | 83.1 µM | 36.4 µM | 33.9 µM | 28.4 µM | > 100 µM
O=C(O)c1cccc(Nc2c(C(=O)O)cccc2[N+](=O)[O-])c1 | > 100 µM | > 100 µM | > 100 µM | > 100 µM | > 100 µM
CC(=O)OCC(OC(C)=O)C1C[C@H]2O[C@@H]3[C@H](C[C@H]2O1)O[C@@]1(C[C@@H]3C)C[C@H](C)[C@@H]2O[C@]3(C[C@@H]2O1)C[C@H]1O[C@H]2[C@H](C)[C@H]4OC(=O)C[C@H]5CC[C@@H]6OC7[C@H]8O[C@]9(CC[C@H]%10CC(=O)[C@H](CC[C@H]%11C[C@@H](C)C(=O)C(C[C@@H]4O[C@H]2C[C@H]1O3)O%11)O%10)CC8O[C@@H]7[C@@H](O9)[C@H]6O5 (stereo partly specified) | > 1 µM | > 0.859 µM | > 1 µM | > 1 µM | > 0.22 µM
CC[C@]12C=CCN3CC[C@@]4(c5cc(Br)c(OC)c([N+](=O)[O-])c5N(C)[C@H]4[C@@](O)(C(=O)OC)[C@@H]1OC(C)=O)[C@@H]32 | > 100 µM | > 100 µM | > 100 µM | > 100 µM | > 100 µM
OC1=C2c3ccccc3NC2Oc2cc(F)ccc21 (stereo unspecified) | 33.2 µM | 39.3 µM | 27.9 µM | 28.2 µM | 26.6 µM
C[C@]12CCC(O)CC1=CC[C@@H]1[C@@H]2CC[C@]2(C)C(O)[C@H](n3ccnc3)C[C@@H]12 (stereo partly specified) | – | > 100 µM | > 100 µM | > 100 µM | –

Compound | TGI [1] | TGI [2] | TGI [3] | TGI [4] | TGI [5]
Cc1ccc(S(=O)(=O)NC(=O)NCc2ccc(S(N)(=O)=O)cc2)cc1 | > 100 µM | > 100 µM | > 100 µM | > 100 µM | > 100 µM
O=C1CSC(c2ccccc2)N1c1nc2cc3sc(N4C(=O)CSC4c4ccccc4)nc3cc2s1 (stereo unspecified) | > 100 µM | > 100 µM | > 100 µM | > 100 µM | > 100 µM
COc1ccc(CNc2ccn(C3OC(CO)C(O)C3O)c(=O)n2)cc1 (stereo unspecified) | > 100 µM | > 100 µM | > 100 µM | > 100 µM | > 100 µM
COc1ccccc1C[C@@H]1OC2(C=CC(=O)CC2SC(=O)c2ccccc2)O[C@H]1Cc1ccccc1OC (stereo partly specified) | 3.03 µM | 1.9 µM | 4.93 µM | 3.1 µM | 5.04 µM
CSC1=N/C(=C\c2ccc(C)cc2)C(=O)N1 | > 100 µM | > 100 µM | > 100 µM | – | > 100 µM
Cc1sc2nc(N(C)C)oc(=O)c2c1C | > 100 µM | > 100 µM | – | > 100 µM | > 100 µM
OCC1OC(NC(=S)NCCC(F)(F)C(F)(F)C(F)(F)C(F)(F)C(F)(F)C(F)(F)F)C(O)C(O)C1O (stereo unspecified) | > 100 µM | > 100 µM | > 100 µM | > 100 µM | > 100 µM
C=CC(C)(C)n1cc(C2=C3OC(=O)C(c4cn(C(C)(C)C=C)c5ccccc45)=C3OC2=O)c2ccccc21 | > 100 µM | > 100 µM | > 100 µM | > 100 µM | –
NC1C/C(=N\O)c2c(Cl)sc(Cl)c21 (stereo unspecified) | 37 µM | 15.9 µM | 31.8 µM | – | > 100 µM
COc1cc(C(=O)NNC(=O)c2cc(Br)ccc2NC(=O)c2cccs2)cc(OC)c1OC | 42.2 µM | 37.1 µM | > 100 µM | 26.7 µM | 36.5 µM
O=C1C2=Cc3ccccc3CCN2c2ccccc21 | > 100 µM | 38.7 µM | > 100 µM | 34.1 µM | –
O=C1Cc2c([nH]c3ccc(Br)cc23)-c2cc(Br)ccc2N1 | – | > 100 µM | – | > 100 µM | > 100 µM
Cc1cccc2nc(-c3ccccc3)cc(=O)n12 | > 100 µM | – | > 100 µM | > 100 µM | > 100 µM
O=C1c2c(Br)sc(Br)c2C(NC(=O)C(F)(F)F)C1O (stereo unspecified) | – | 44.5 µM | 43.7 µM | 36 µM | 36.4 µM
COC(=O)c1ccccc1/C=C1\Cc2c(C)c3c(c(C)c2C1=O)CCC3 | > 100 µM | > 100 µM | > 100 µM | > 100 µM | –
COc1ccc(NC(=S)Nc2cc(C)ccn2)cc1 | > 100 µM | > 100 µM | – | > 100 µM | –
CCCCCCCC(CC(=O)NC(CO)C(=O)NC(CO)CC(C)C)OC(=O)CC(CCCCCCC)OC(=O)CC(CCCCCCC)OC1OC(C)C(O)C(OC2OC(C)C(O)C(OC(C)=O)C2O)C1O (stereo unspecified) | 24.8 µM | – | 23 µM | 25.1 µM | 30.8 µM

From PubChem BioAssay (NCI)
